# Several values for one entry are separate records, joined by “and”; a condition that tells them apart may be missing. Identical values can stand only once.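 Growth conditions: 96-well plates. Treatment: test compound, 48 hours, 5 concentrations. Analysis: linear interpolation between bracketing concentrations; unreached endpoints set to highest concentration. GI50 marks 50% less growth. The concentration for full growth arrest is given as TGI.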
# How the values were obtained:
# Assay in all cases: NCI tumour cell line growth inhibition, 48 h
# SK-MEL-2 melanoma = test system: SK-MEL-2 melanoma
# T-47D breast = test system: T-47D breast
# MOLT-4 leukemia = test system: MOLT-4 leukemia
# EKVX NSCLC = test system: EKVX NSCLC
# UO-31 renal = test system: UO-31 renal
# RXF 393 renal = test system: RXF 393 renal
# NCI-H23 lung = test system: NCI-H23 lung
# HL-60(TB) leukemia = test system: HL-60(TB) leukemia
# SNB-75 CNS = test system: SNB-75 CNS
# SN12C renal = test system: SN12C renal
SMILES,GI50 (SK-MEL-2 melanoma),TGI (SK-MEL-2 melanoma),GI50 (T-47D breast) [µM],TGI (T-47D breast) [µM],GI50 (MOLT-4 leukemia),TGI (MOLT-4 leukemia),GI50 (EKVX NSCLC),TGI (EKVX NSCLC),GI50 (UO-31 renal),TGI (UO-31 renal),GI50 (RXF 393 renal),TGI (RXF 393 renal),GI50 (NCI-H23 lung),TGI (NCI-H23 lung),GI50 (HL-60(TB) leukemia),TGI (HL-60(TB) leukemia),GI50 (SNB-75 CNS),TGI (SNB-75 CNS),GI50 (SN12C renal),TGI (SN12C renal)
O=C1NC(=O)/C(=C\c2ccccc2)C2=C1CCCC2,7.72 µM,22.9 µM,10.2,29.9,2.77 µM,7.73 µM,14.3 µM,29.5 µM,7.43 µM,21.8 µM,6.52 µM,59.8 µM,2.63 µM,8.33 µM,3.25 µM,12.5 µM,11.9 µM,24.7 µM,3.03 µM,11 µM
CCOc1ccncc1[N+](=O)[O-],–,> 100 µM,–,> 100,–,> 100 µM,–,> 100 µM,–,> 100 µM,–,> 100 µM,–,> 100 µM,–,> 100 µM,–,> 100 µM,–,> 100 µM
O=C(O)c1ccc(OCc2ccccc2)c(Cl)c1,–,> 100 µM,–,> 100,–,> 100 µM,–,> 100 µM,–,> 100 µM,–,> 100 µM,–,> 100 µM,–,> 100 µM,–,> 100 µM,–,> 100 µM
CSc1ccc2c(c1)C(=O)c1c-2n(CCCBr)c(=O)c2cc([N+](=O)[O-])ccc12,> 100 µM,> 100 µM,17.8,> 100,0.558 µM,17 µM,> 100 µM,> 100 µM,3.63 µM,> 100 µM,> 100 µM,> 100 µM,8.03 µM,> 100 µM,0.532 µM,8.46 µM,7.9 µM,> 100 µM,0.893 µM,6.95 µM
C=C1C(=O)OC2CC(C)C3(O)CCC(=O)C3(C)CC12 (stereo not given),–,71.5 µM,–,> 100,–,58 µM,–,> 100 µM,–,> 100 µM,–,79.7 µM,–,> 100 µM,–,39.2 µM,–,84.3 µM,–,48.8 µM
c1ccc2c(c1)c1c(c3ccccc32)CN2CCCC2C1 (stereo not given),–,9.1 µM,–,> 100,–,> 100 µM,–,> 100 µM,–,11.8 µM,–,9.02 µM,–,10.3 µM,–,4.21 µM,–,35.3 µM,–,14.9 µM
C#COc1cccc(Nc2c(C#N)cnc3ncc(NC(=O)CCl)cc23)c1,> 62.5 µM,> 62.5 µM,23.3,> 62.5,4.2 µM,> 62.5 µM,> 62.5 µM,> 62.5 µM,35.1 µM,> 62.5 µM,> 62.5 µM,> 62.5 µM,> 62.5 µM,> 62.5 µM,41 µM,> 62.5 µM,45.4 µM,> 62.5 µM,16.2 µM,> 62.5 µM
N=C(N)c1ccc2nc(-c3cc(CC(=O)N[C@@H](CC(=O)O)C(=O)O)cc(-c4cc(S(N)(=O)=O)ccc4O)c3O)[nH]c2c1,> 100 µM,> 100 µM,> 100,> 100,> 100 µM,> 100 µM,> 100 µM,> 100 µM,> 100 µM,> 100 µM,> 100 µM,> 100 µM,> 100 µM,> 100 µM,> 100 µM,> 100 µM,> 100 µM,> 100 µM,> 100 µM,> 100 µM
N#Cc1c(N/N=C/c2ccc(Cl)cc2Cl)nc(N)nc1N1CCCC1,72.3 µM,> 100 µM,88.4,> 100,25 µM,> 100 µM,> 100 µM,> 100 µM,32 µM,> 100 µM,21.5 µM,66.2 µM,38.5 µM,> 100 µM,27.7 µM,59.4 µM,6.26 µM,49.8 µM,51.9 µM,> 100 µM
O=C(c1ccc(/C=C/c2n[nH]c3ccccc23)cc1)N1CCNCC1,4.53 µM and 6.85 µM,> 10 µM and 20.5 µM,19.5,47.1,2.26 µM and 2.27 µM,5.79 µM and 36.3 µM,> 10 µM and 8.5 µM,> 10 µM and 34.6 µM,2.94 µM and 2.95 µM,> 10 µM and 15.1 µM,2.66 µM and 1.99 µM,> 10 µM and 6.94 µM,> 10 µM and 2.55 µM,> 10 µM and 16.9 µM,1.94 µM and 4.15 µM,4.45 µM and 22.3 µM,3.81 µM and 2.37 µM,> 10 µM and 9.14 µM,> 10 µM and 2.43 µM,> 10 µM and 19.4 µM
O[C@H](c1cc(C(F)(F)F)nc2c(C(F)(F)F)cccc12)[C@@H]1CCCCN1,3.26 µM,11.9 µM,3.82,16,3.51 µM,11.1 µM,4.32 µM,17.3 µM,1.88 µM,9.48 µM,3.82 µM,13.5 µM,4.75 µM,16.6 µM,2.08 µM,4.51 µM,2.21 µM,11.5 µM,4.19 µM,14 µM

# From PubChem BioAssay (NCI)
